US8772499B2, “TRPV3 modulators” (AbbVie Inc., priority 2011, dated 2014)
Where two headings read alike, the source gives them in different places.

Experiments:
human TRPV3 = target: T1, human TRPV3 (Homo sapiens, UniProt Q8NET8); assay: In vitro antagonism of recombinant human TRPV3 activation (FLIPR Tetra calcium assay); assay type: cell-based; conditions: HEK293 cells stably expressing human TRPV3, agonist 2-APB at 80 μM
T1 construct: expressed in transfected cells
T1 sequence (Q8NET8 1-790): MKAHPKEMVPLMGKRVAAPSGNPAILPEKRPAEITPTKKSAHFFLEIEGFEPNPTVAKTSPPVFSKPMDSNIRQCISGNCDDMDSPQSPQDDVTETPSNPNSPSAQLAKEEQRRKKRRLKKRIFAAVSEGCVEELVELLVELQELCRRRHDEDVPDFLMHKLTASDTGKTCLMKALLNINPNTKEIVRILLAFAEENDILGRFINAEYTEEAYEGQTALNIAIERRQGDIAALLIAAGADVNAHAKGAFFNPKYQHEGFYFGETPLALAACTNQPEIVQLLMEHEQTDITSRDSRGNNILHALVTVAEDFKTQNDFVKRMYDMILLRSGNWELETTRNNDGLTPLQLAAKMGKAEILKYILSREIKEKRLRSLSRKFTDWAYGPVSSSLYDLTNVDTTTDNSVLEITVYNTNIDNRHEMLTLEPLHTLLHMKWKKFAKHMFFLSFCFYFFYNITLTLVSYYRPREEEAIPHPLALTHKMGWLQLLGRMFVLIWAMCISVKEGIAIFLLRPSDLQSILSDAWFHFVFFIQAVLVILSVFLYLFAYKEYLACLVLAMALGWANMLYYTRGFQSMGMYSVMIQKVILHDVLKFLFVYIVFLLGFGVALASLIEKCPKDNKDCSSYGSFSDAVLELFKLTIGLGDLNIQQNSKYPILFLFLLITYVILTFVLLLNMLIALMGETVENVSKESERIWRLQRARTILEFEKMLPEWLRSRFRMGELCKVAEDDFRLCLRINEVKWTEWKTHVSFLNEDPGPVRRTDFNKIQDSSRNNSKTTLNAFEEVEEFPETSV
Summary of the method: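 Calcium flux read over a 10 min run: compound added at 10 s to Calcium-4-loaded human TRPV3-HEK293 cells, agonist 2-APB (80 μM, its EC80) after 3 min. IC50 derived from peak-minus-baseline signal as percentage of uninhibited 2-APB response, typically averaged over at least two runs.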

[1] = In vitro human microsomal stability assay; assay type: in vitro ADME; conditions: human, microsomes, 0.5 h, 0.5 μM, pH 7.4
Summary of the method: (§1)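 Metabolic stability was followed in NADPH-supplemented incubations at 37° C., using microsomes prepared from human liver or from Sprague-Dawley rat liver.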

[2] = In vitro rat microsomal stability assay; assay type: in vitro ADME, rat (Sprague-Dawley); conditions: Sprague-Dawley, rat, microsomes, 0.5 h, 0.5 μM, pH 7.4
Summary of the method: as §1

[3] = actual measured value shown parenthetically, in most cases average of at least two runs, read-out: IC50
[4] = reported range, read-out: IC50 (range class)

Row | SMILES | IC50 (human TRPV3; [3]) [nM] | HUMAN MICROSOMAL STABILITY (% REMAINING AFTER 30 MINUTES) [1] [%] | RAT MICROSOMAL STABILITY (% REMAINING AFTER 30 MINUTES) [2] [%] | IC50 (human TRPV3; [4]) [nM]
1 | O[C@@H](c1ncccn1)C1(c2ccc(Cl)c(Cl)c2)CCC1 [Example 40, (R)-[1-(3,4-dichlorophenyl)cyclobutyl](pyrimidin-2-yl)methanol] | 13300 | 68 | 5.6 | 
2 | O[C@H](c1ncccn1)C1(c2ccc(C(F)(F)F)cc2)CCC1 [Example 41, (S)-pyrimidin-2-yl{1-[4-(trifluoromethyl)phenyl]cyclobutyl}methanol] | > 10000 | 54 | 21 | 
3 | O[C@@H](c1ncccn1)C1(c2ccc(C(F)(F)F)cc2)CCC1 [Example 42, (R)-pyrimidin-2-yl{1-[4-(trifluoromethyl)phenyl]cyclobutyl}methanol] | > 10000 | 50 | 40 | 
4 | OC(c1ccccn1)C1(c2ccc(Cl)c(Cl)c2)CCCCC1 (centres unmarked) [Example 43, [1-(3,4-dichlorophenyl)cyclohexyl](pyridin-2-yl)methanol] | 660 | 1.8 | 0.31 | 50 to 500
5 | Cc1ccccc1C(C)C1(C(O)c2ccccn2)CCC1 (centres unmarked) [Example 45, {1-[1-(2-methylphenyl)ethyl]cyclobutyl}(pyridin-2-yl)methanol] | 2220 | 0.03 | 0.02 | 
6 | CC(c1ccc(F)cc1)C1(C(O)c2ccccn2)CCC1 (centres unmarked) [Example 46, {1-[1-(4-fluorophenyl)ethyl]cyclobutyl}(pyridin-2-yl)methanol] | 13700 | 11 | 0.23 | 
7 | CC(c1ccc(Cl)cc1)C1(C(O)c2ccccn2)CCC1 (centres unmarked) [Example 49, {1-[1-(4-chlorophenyl)ethyl]cyclobutyl}(pyridin-2-yl)methanol] | 3270 | 15 | 0.13 | 
8 | CC(c1ccccc1Cl)C1(C(O)c2ccccn2)CCC1 (centres unmarked) [Example 50, {1-[1-(2-chlorophenyl)ethyl]cyclobutyl}(pyridin-2-yl)methanol] | 2420 | 0.08 | 0.18 | 
9 | Cc1ccc(CC2(C(O)c3ccccn3)CCC2)cc1 (centres unmarked) [Example 52, [1-(4-methylbenzyl)cyclobutyl](pyridin-2-yl)methanol] | 5020 | 1.7 | 0.05 | 
10 | OC(c1ccccn1)C1(C2CCc3ccccc32)CCC1 (centres unmarked) [Example 55, [1-(2,3-dihydro-1H-inden-1-yl)cyclobutyl](pyridin-2-yl)methanol] | 7120 | 1.6 | 0.29 | 
11 | OC(c1ccccn1)C1(C2CCCc3ccccc32)CCC1 (centres unmarked) [Example 56, pyridin-2-yl[1-(1,2,3,4-tetrahydronaphthalen-1-yl)cyclobutyl]methanol] | 1070 | 0.42 | 1.1 | 
12 | OC(c1ccccn1)C1(C2CCOc3ccccc32)CCC1 (centres unmarked) [Example 57, [1-(3,4-dihydro-2H-chromen-4-yl)cyclobutyl](pyridin-2-yl)methanol] | 9290 | 16 | 10 | 
13 | OC(c1ccccn1)C1(C(c2ccccc2)C(F)(F)F)CCC1 (centres unmarked) [Example 58, pyridin-2-yl[1-(2,2,2-trifluoro-1-phenylethyl)cyclobutyl]methanol] | 3630 | 36 | 33 | 
14 | OC(c1ccccn1)C1(c2ccc(Cl)c(Cl)c2)CCOCC1 (centres unmarked) [Example 59, [4-(3,4-dichlorophenyl)tetrahydro-2H-pyran-4-yl](pyridin-2-yl)methanol] | 1790 | 45 | 12 | 
15 | OC(c1ccccn1)C1(c2cccc(OC(F)(F)F)c2)CCOCC1 (centres unmarked) [Example 66, pyridin-2-yl{4-[3-(trifluoromethoxy)phenyl]tetrahydro-2H-pyran-4-yl}-methanol] | 1520 | 31 | 23 | 
16 | OC(c1ccccn1)C1(c2ccc(OC(F)(F)F)cc2)CCOCC1 (centres unmarked) [Example 67, pyridin-2-yl{4-[4-(trifluoromethoxy)phenyl]tetrahydro-2H-pyran-4-yl}-methanol] | 2600 | 58 | 47 | 
17 | OC(CC1(c2cccc(C(F)(F)F)c2)CCC1)c1ccccn1 (centres unmarked) [Example 74, 1-(pyridin-2-yl)-2-{1-[3-(trifluoromethyl)phenyl]cyclobutyl}ethanol] | 410 | 6.8 | 0.45 | 
18 | OC(CC1(c2ccc(C(F)(F)F)cc2)CCC1)c1ccccn1 (centres unmarked) [Example 75, 1-(pyridin-2-yl)-2-{1-[4-(trifluoromethyl)phenyl]cyclobutyl}ethanol] | 940 | 44 | 0.74 | 
19 | OC(CC1(c2ccc(OC(F)(F)F)cc2)CCC1)c1ccccn1 (centres unmarked) [Example 76, 1-(pyridin-2-yl)-2-{1-[4-(trifluoromethoxy)phenyl]cyclobutyl}ethanol] | 650 | 39 | 0.47 | 
20 | OC(CC1(c2cccc(OC(F)(F)F)c2)CCC1)c1ccccn1 (centres unmarked) [Example 77, 1-(pyridin-2-yl)-2-{1-[3-(trifluoromethoxy)phenyl]cyclobutyl}ethanol] | 760 | 11 | 0.94 | 
21 | OC(c1ccccn1)C1(c2ccc(Cl)c(Cl)c2)CC(F)(F)C1 (centres unmarked) [Example 82, [1-(3,4-dichlorophenyl)-3,3-difluorocyclobutyl](pyridin-2-yl)methanol] | 780 | 35 | 16 | 
22 | OC(c1ccccn1)C1(c2ccc(C(F)(F)F)nc2)CCC1 (centres unmarked) [Example 85, pyridin-2-yl{1-[6-(trifluoromethyl)pyridin-3-yl]cyclobutyl}methanol] | 5610 | 82 | 76 | 
23 | OC(c1ccccn1)C1(c2ccc(Cl)c(Cl)c2)COC1 (centres unmarked) [Example 87, [3-(3,4-dichlorophenyl)oxetan-3-yl](pyridin-2-yl)methanol] | > 20000 | 47 | 8.6 | > 20000
24 | Cc1ccccc1C1(C(O)c2ccccn2)CCCO1 (centres unmarked) [Example 90, [2-(2-methylphenyl)tetrahydrofuran-2-yl](pyridin-2-yl)methanol] | 460 | 35 | <0.01 | 
